For the experiment, the system named is Experimental Autoimmune Uveitis (EAV). The note with it: 25 to 50 mg/kg/day i.m. on 7 consecutive days commencing 7 days after immunization with bovine S antigen; histopathology on day 14; compared with olive oil control groups.

Data on one substance can be found in patent EP0170623B1, “Novel pharmaceutical use of (NVA)2-cyclosporine” (SANDOZ AG, priority 1984, dated 1990).

As for (Nva)^2-Cyclosporine, the “number of animals evidencing EAV” value is reported as “substantial reduction”.
